Like-named read-outs stand apart in the source and are kept apart here.
Legend:
Test in all cases: biochemical
Assay type in all cases: binding
[1] = molecular target: T1, cellular kinases of SH-SY5Y cells (Homo sapiens, UniProt O95835); details: 2µM, SH-SY5Y cells, read-out: KiNativ in-cell binding, % Inhibition, LATS1
T1 construct: endogenous in cells; host or cells: SH-SY5Y
Description: (§1) As KINOMEscan is an in vitro assay, and as different cell types have variable kinase expression profiles we sought to determine the kinase binding profile in our SH-SY5Y TFEB-relocalization cell model. […] Bound kinases were pulled down and analyzed by mass spectrometry to determine the in situ kinase binding profile for each compound.

[2] = molecular target: T2, cellular kinases of SH-SY5Y cells (Homo sapiens, UniProt Q8NB16); details: 2µM; SH-SY5Y cells; labeling site Lys1; peptide APVAIKVFK
T2 construct: endogenous in cells; host or cells: SH-SY5Y
Description: as §1

[3] = molecular target: T3, cellular kinases of SH-SY5Y cells (Homo sapiens, UniProt O15111); details: 2µM; SH-SY5Y cells; Labeling Site Lys2; DLKPENIVLQDVGGK; read-out: KiNativ in-cell binding, % Inhibition, CHUK/IKKa
T3 construct: endogenous in cells; host or cells: SH-SY5Y
Description: as §1

[4] = molecular target: cellular kinases of SH-SY5Y cells (Homo sapiens, UniProt P27361); details: 2µM; SH-SY5Y cells; Labeling Site Lys2; DLKPSNLLINTTCDLK; read-out: KiNativ in-cell binding, % Inhibition, MAPK3/Erk1
Description: as §1

[5] = molecular target: cellular kinases of SH-SY5Y cells (Homo sapiens, UniProt Q8TBX8); details: 2µM, SH-SY5Y cells, Labeling Site ATP, read-out: KiNativ in-cell binding, % Inhibition, PIP4K2C
Description: as §1

[6] = molecular target: T4, cellular kinases of SH-SY5Y cells (Homo sapiens, UniProt Q9Y6E0); details: 2µM; SH-SY5Y cells; Labeling Site Lys2; DIKAANVLLSEHGEVK; read-out: KiNativ in-cell binding, % Inhibition, STK24/MST3
T4 construct: endogenous in cells; host or cells: SH-SY5Y
Description: as §1

[7] = molecular target: cellular kinases of SH-SY5Y cells (Homo sapiens, UniProt Q13535); details: 2µM; SH-SY5Y cells; Labeling Site ATP; FYIMMCKPK; read-out: KiNativ in-cell binding, % Inhibition, ATR
Description: as §1

[8] = molecular target: T5, cellular kinases of SH-SY5Y cells (Homo sapiens, UniProt Q8TD19); details: 2µM, SH-SY5Y cells, read-out: KiNativ in-cell binding, % Inhibition, NEK9
T5 construct: endogenous in cells; host or cells: SH-SY5Y
T5 sequence (Q8TD19 1-979): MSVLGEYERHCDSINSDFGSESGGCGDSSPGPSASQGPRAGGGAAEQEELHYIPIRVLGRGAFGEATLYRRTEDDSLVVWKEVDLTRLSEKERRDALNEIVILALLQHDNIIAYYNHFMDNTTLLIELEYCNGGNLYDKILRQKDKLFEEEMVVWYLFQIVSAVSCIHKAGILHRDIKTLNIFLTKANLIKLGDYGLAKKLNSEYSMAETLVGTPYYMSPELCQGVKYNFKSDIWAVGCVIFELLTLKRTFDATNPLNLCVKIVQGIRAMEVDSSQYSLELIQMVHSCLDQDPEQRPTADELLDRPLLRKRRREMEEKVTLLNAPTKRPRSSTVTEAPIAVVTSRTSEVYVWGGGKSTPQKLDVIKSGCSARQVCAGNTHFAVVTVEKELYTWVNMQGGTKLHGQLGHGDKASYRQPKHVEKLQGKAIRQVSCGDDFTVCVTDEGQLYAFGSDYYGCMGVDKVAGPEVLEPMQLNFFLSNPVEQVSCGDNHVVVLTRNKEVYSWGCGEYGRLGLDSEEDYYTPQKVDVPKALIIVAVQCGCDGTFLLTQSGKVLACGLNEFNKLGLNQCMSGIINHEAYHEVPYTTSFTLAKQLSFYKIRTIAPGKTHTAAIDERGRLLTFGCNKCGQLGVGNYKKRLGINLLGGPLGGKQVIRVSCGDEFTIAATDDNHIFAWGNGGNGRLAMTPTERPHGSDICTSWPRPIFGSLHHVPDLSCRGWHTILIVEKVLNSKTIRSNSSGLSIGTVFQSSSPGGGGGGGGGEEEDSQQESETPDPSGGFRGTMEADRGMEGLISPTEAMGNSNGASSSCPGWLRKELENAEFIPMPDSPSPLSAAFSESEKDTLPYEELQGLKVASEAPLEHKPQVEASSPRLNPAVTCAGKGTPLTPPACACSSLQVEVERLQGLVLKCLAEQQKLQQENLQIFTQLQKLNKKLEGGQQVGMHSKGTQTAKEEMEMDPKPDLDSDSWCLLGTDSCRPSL
Description: as §1

[9] = molecular target: T6, cellular kinases of SH-SY5Y cells (Homo sapiens, UniProt Q13418); details: 2µM, SH-SY5Y cells
T6 construct: endogenous in cells; host or cells: SH-SY5Y
Description: as §1

[10] = molecular target: cellular kinases of SH-SY5Y cells (Homo sapiens, UniProt P49840); details: 2µM; SH-SY5Y cells; labeling site Lys2; peptide DIKPQNLLVDPDTAVLK
Description: as §1

[11] = molecular target: T7, cellular kinases of SH-SY5Y cells (Homo sapiens, UniProt P16591); details: 2µM, SH-SY5Y cells
T7 construct: endogenous in cells; host or cells: SH-SY5Y
Description: as §1

[12] = molecular target: cellular kinases of SH-SY5Y cells (Homo sapiens, UniProt P50750); details: 2µM, SH-SY5Y cells, read-out: KiNativ in-cell binding, % Inhibition, CDK9
Description: as §1

[13] = molecular target: T8, cellular kinases of SH-SY5Y cells (Homo sapiens, UniProt P43403); details: 2µM; SH-SY5Y cells; Labeling Site Activation Loop; SAGKWPLK; read-out: KiNativ in-cell binding, % Inhibition, ZAP70
T8 construct: endogenous in cells; host or cells: SH-SY5Y
Description: as §1

[14] = molecular target: cellular kinases of SH-SY5Y cells (Homo sapiens, UniProt Q00534); details: 2µM; SH-SY5Y cells; labeling site Lys2; peptide DLKPQNILVTSSGQIK
Description: as §1

T6 sequence (Q13418 whole entry): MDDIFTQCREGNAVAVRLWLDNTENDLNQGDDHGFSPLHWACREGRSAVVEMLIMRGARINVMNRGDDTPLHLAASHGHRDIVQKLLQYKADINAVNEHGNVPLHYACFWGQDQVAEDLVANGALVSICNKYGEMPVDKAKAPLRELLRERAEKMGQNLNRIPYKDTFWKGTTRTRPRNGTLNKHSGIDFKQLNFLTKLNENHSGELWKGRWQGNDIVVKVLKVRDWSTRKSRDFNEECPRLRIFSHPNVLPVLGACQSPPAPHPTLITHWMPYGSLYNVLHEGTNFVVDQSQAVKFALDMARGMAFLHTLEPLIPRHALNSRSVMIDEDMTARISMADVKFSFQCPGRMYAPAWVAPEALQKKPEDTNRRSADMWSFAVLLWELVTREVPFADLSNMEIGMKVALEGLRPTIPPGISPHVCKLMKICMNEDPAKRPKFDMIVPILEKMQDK
Sequence of cellular kinases of SH-SY5Y cells (Homo sapiens, UniProt P50750) (P50750 whole entry): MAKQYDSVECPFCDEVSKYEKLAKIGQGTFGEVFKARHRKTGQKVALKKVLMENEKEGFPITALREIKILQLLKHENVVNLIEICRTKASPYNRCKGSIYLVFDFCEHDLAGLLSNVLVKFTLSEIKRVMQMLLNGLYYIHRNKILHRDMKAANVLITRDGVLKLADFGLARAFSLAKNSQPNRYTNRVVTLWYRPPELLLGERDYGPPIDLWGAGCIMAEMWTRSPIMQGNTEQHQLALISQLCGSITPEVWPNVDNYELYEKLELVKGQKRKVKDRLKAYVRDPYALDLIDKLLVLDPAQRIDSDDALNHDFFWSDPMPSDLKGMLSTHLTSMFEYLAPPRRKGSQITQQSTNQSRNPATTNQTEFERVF
Sequence of cellular kinases of SH-SY5Y cells (Homo sapiens, UniProt Q8TBX8) (Q8TBX8 whole entry): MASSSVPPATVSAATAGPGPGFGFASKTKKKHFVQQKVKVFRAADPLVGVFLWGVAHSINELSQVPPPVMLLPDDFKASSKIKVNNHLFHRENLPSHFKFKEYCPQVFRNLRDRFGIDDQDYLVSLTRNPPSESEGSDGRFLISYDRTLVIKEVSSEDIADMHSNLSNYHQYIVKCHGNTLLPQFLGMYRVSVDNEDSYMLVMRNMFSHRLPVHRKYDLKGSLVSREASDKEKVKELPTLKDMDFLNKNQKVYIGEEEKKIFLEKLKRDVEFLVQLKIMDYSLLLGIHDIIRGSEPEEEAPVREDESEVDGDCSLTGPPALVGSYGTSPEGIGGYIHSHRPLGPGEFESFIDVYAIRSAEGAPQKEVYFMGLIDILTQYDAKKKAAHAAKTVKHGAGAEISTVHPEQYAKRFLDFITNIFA
T7 sequence (P16591 whole entry): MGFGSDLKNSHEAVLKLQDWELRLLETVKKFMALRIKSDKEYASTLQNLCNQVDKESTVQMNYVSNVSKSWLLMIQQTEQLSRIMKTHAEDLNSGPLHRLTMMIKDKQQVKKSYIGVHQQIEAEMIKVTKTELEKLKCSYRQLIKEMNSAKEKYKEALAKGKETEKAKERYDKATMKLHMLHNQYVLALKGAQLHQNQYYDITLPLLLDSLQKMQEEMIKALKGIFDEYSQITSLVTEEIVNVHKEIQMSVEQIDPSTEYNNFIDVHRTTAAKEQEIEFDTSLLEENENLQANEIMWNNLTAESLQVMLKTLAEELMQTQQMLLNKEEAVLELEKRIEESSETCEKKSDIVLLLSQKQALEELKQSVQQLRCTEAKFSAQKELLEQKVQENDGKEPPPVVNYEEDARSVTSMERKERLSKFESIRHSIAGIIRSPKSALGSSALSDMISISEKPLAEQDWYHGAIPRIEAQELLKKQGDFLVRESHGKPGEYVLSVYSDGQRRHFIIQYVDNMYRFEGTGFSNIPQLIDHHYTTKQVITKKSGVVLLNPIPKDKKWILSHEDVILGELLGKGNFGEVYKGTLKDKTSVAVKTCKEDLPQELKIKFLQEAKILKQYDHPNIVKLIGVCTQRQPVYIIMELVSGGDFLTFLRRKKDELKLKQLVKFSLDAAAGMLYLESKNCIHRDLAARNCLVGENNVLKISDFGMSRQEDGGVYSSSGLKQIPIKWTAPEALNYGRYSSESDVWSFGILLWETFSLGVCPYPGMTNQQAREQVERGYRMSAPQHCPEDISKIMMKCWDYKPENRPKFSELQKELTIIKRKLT
T1 sequence (O95835 whole entry): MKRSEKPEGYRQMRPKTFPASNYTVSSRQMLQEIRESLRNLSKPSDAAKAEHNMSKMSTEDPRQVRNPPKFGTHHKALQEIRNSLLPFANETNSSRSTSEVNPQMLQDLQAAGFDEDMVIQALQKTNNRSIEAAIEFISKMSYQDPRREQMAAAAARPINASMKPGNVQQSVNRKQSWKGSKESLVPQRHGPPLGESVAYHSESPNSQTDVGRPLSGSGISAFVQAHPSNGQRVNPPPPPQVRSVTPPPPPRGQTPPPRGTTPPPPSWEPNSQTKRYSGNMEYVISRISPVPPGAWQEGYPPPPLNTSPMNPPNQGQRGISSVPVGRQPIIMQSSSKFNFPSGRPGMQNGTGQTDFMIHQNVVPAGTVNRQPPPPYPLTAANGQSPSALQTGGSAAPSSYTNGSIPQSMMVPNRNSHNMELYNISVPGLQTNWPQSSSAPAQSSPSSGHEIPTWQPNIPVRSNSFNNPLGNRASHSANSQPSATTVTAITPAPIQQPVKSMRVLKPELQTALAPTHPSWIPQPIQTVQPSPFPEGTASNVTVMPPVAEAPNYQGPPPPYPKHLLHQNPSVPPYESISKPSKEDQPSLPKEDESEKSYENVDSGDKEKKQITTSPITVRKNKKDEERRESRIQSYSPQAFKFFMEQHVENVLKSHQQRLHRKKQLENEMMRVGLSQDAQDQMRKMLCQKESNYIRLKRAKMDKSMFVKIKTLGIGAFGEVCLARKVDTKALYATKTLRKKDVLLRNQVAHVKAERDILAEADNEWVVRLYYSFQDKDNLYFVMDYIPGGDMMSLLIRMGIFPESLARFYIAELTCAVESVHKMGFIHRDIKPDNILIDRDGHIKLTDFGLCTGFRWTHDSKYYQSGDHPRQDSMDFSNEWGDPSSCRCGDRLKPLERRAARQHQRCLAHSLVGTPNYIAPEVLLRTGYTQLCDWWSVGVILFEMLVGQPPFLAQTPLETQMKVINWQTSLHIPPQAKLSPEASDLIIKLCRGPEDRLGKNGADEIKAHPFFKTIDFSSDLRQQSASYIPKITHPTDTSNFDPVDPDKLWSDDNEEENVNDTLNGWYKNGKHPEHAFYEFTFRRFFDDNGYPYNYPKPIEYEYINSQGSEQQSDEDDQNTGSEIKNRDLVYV
T3 sequence (O15111 whole entry): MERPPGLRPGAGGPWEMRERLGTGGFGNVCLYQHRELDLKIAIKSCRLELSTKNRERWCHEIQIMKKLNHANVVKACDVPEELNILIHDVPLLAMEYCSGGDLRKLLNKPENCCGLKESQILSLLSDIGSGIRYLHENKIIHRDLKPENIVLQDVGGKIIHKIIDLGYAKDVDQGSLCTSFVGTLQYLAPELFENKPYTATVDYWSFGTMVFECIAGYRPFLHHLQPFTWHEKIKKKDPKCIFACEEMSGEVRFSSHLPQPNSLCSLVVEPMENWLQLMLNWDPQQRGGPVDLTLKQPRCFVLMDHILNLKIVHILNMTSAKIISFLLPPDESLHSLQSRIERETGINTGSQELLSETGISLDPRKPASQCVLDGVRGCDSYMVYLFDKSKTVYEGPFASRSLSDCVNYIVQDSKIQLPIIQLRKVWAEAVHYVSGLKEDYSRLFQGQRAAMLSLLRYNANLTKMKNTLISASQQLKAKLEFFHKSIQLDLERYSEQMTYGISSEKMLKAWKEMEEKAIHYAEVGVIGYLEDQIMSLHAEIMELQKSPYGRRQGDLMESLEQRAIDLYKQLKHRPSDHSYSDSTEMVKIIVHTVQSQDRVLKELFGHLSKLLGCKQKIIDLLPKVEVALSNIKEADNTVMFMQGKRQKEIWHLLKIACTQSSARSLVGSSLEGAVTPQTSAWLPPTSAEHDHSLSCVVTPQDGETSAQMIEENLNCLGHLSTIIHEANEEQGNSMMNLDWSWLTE
Sequence of cellular kinases of SH-SY5Y cells (Homo sapiens, UniProt P27361) (P27361 whole entry): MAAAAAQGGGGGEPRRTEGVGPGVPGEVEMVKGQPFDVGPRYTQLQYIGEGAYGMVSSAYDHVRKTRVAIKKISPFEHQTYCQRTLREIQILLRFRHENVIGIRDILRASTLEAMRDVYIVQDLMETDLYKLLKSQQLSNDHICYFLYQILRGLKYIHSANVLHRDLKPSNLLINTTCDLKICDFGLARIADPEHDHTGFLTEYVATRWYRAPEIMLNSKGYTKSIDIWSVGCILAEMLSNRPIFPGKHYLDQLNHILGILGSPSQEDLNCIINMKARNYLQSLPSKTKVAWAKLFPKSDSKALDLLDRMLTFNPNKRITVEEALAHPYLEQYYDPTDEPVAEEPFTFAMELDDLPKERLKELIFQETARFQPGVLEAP
Sequence of cellular kinases of SH-SY5Y cells (Homo sapiens, UniProt Q00534) (Q00534 whole entry): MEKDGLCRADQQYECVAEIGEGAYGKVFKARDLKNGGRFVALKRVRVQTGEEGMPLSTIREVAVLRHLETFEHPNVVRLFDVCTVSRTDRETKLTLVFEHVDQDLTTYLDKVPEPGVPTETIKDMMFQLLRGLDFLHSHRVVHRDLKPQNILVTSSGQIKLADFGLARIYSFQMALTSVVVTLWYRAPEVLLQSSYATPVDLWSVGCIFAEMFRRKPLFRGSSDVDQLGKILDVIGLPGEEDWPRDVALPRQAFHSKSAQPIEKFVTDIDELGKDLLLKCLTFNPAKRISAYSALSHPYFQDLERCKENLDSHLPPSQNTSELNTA

For `Cc1cccc(-c2nc(Nc3ccc4ncsc4c3)c3ccccc3n2)n1` [NK140], the inhibition at 2 µM ([1]; Labeling Site Lys1, ALYATKTLR) was 20.9%, the inhibition at 2 µM ([1]; Labeling Site Lys2, DIKPDNILIDR) was 19.3% and the “KiNativ in-cell binding, MLKL” value [2] was -57.5. It also gave an inhibition at 2 µM [3] of -29.6%, an inhibition at 2 µM [4] of 32.4% and an inhibition at 2 µM ([5]; TLVIKEVSSEDIADMHSNLSNYHQYIVK) of -7%. The inhibition at 2 µM ([5]; VKELPTLKDMDFLNK) was 7.2%, the inhibition at 2 µM [6] was 28.7% and the inhibition at 2 µM [7] was -42.5%. It also gave an inhibition at 2 µM ([8]; Labeling Site Activation Loop, LGDYGLAKK) of 0.758%, an inhibition at 2 µM ([8]; Labeling Site Lys1, RTEDDSLVVWKEVDLTR) of -12.8% and an inhibition at 2 µM ([8]; Labeling Site Lys2, DIKTLNIFLTK) of -8%. The inhibition at 2 µM ([9]; Labeling Site Protein Kinase Domain, ISMADVKFSFQCPGR, read-out: KiNativ in-cell binding, % Inhibition, ILK) was -31.8%, the “KiNativ in-cell binding, ILK” value ([9]; labeling site Lys1, peptide WQGNDIVVKVLK) was -23.6 and the “KiNativ in-cell binding, GSK3A” value [10] was 7.1. The “KiNativ in-cell binding, FER” value ([11]; labeling site Activation Loop, peptide QEDGGVYSSSGLKQIPIK) was -42.5, the “KiNativ in-cell binding, FER” value ([11]; labeling site Lys1, peptide TSVAVKTCKEDLPQELK) was -53.4 and the inhibition at 2 µM ([12]; Labeling Site ATP Loop, IGQGTFGEVFKAR) was 2.1%. The inhibition at 2 µM ([12]; Labeling Site Lys2, DMKAANVLITR) was -6%, the inhibition at 2 µM [13] was -3% and the “KiNativ in-cell binding, CDK6” value [14] was -30.7.
